Molecular target: T1, TLR7 (Homo sapiens, UniProt Q9NYK1)
T1 construct: expressed in transfected cells; host or cells: HEK cells carrying TLR7 and an NF-kB reporter read with Steady-Glo
T1 sequence (Q9NYK1 27-1049): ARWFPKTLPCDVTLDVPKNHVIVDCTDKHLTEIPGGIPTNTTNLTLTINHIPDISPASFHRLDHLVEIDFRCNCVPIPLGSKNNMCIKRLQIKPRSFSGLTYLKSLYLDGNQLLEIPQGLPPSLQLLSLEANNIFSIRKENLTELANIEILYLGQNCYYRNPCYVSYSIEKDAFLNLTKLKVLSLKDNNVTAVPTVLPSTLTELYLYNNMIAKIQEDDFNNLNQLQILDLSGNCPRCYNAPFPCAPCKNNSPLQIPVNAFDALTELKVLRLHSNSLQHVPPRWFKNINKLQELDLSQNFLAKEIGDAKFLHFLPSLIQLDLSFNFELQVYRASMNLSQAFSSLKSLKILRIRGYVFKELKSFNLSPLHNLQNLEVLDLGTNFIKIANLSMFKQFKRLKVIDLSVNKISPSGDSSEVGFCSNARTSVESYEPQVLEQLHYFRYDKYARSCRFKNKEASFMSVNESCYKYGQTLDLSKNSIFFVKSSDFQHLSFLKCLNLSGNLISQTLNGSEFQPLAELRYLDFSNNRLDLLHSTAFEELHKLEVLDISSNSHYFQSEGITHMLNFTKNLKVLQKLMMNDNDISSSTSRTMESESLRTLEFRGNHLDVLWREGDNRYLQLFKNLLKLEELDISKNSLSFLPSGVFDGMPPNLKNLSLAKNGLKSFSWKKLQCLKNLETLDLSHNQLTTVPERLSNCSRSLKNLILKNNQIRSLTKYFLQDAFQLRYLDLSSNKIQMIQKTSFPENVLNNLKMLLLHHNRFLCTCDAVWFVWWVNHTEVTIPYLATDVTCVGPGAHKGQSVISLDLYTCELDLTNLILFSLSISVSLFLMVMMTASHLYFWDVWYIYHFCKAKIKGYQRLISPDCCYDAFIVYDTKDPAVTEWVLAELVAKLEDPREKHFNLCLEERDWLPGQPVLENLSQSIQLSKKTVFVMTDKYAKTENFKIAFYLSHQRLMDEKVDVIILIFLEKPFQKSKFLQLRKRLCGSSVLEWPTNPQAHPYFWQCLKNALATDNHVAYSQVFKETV
Test: HEK Cell Assay (TLR7/NFKb HEK reporter cells, Steady-Glo)
Assay type: cell-based
Settings: compound 30 min, then R*48 agonist 5 hours, Steady-Glo readout, read-out: Potency
Description: Example 32: HEK Cell Assay
Into 384 CulturePlates (Corning 3707) was placed 5000 c/w of TLR7/NFKb HEK cells in 30 uL DMEM without Phenil red (gibco #31053) and 10% i.a. FCS and 2 mM L-ZGLutamin. The cells were incubated for 24 h at 37 degrees Celsius, 10% carbon dioxide and 90% relative humidity, 3 uL of controls, standards, and compounds were dispensed to wells, incubated for 30 min then 3 uL of R*48 agonist in 20 mM Hepes was added. After incubation for 5 hours, it was allowed to stand at room temperature for 15 min, 10 uL of Steady-Glo substrate reagent was added and shake assay plate for 5 min at 1500 rpm. The assay plate was allowed to sit for 30 min at room temperature and then read plate on EnVision.

| SMILES | IC50 [nM] |
| --- | --- |
| C[C@H]1C[C@@H](NC(=O)CC2CC2(F)F)C[C@@H](c2ccc(C#N)c3nccnc23)C1 (mixture of isomers) [Compound 156, N-[(cis-1,3,5)-3-(8-cyanoquinoxalin-5-yl)-5-methylcyclohexyl]-2-(2,2-difluorocyclopropyl)acetamide] | 1000 to 20000 |
| C[C@@H]1C[C@H](c2ccc(C(F)(F)F)c3ncccc23)CN(C(=O)CC2CCN(C)CC2)C1 (racemic) [Compound 4, cis-2-(1-Methyl-piperidin-4-yl)-1-[3-methyl-5-(8-trifluoromethyl-quinolin-5-yl)-piperidin-1-yl]-ethanone] | < 1000 |
| CC(C)N1CCC(CC(=O)N2C[C@H](C)C[C@H](c3ccc(C#N)c4ncccc34)C2)CC1 (racemic) [Compound 19] | < 1000 |
| C[C@@H]1C[C@H](c2ccc(C#N)c3ncccc23)CN(C(=O)CN2CC3CCC2CN3)C1 (mixture of isomers) [Compound 116, 5-[(3R,5R)-1-(2-2,5-Diaza-bicyclo[2.2.2]oct-2-yl-acetyl)-5-methyl-piperidin-3-yl]-quinoline-8-carbonitrile] | < 1000 |
| C[C@H]1C[C@@H](N)C[C@@H](c2ccc(C#N)c3nccnc23)C1 (racemic) [Compound 120, 8-((S,3R,5R)-3-amino-5-methylcyclohexyl) quinoxaline-5-carbonitrile] | < 1000 |
| C[C@H]1C[C@@H](NC(=O)CC(C)(C)C)C[C@@H](c2ccc(C#N)c3nccnc23)C1 (racemic) [Compound 129, N-[(cis-1,3,5)-3-(8-cyanoquinoxalin-5-yl)-5-methylcyclohexyl]-3,3-dimethylbutanamide] | < 1000 |
| C[C@H]1C[C@@H](NC(=O)CC(C)(C)C)C[C@H](c2ccc(C#N)c3nccnc23)C1 (racemic) [Compound 130, N-[(1,cis-3,trans-5,cis)-3-(8-cyanoquinoxalin-5-yl)-5-methylcyclohexyl]-3,3-dimethylbutanamide] | 1000 to 20000 |
| C[C@H]1C[C@@H](NC(=O)CN(C)C)C[C@@H](c2ccc(C#N)c3nccnc23)C1 (racemic) [Compound 131, N-[(cis-1,3,5)-3-(8-cyanoquinoxalin-5-yl)-5-methylcyclohexyl]-2-(dimethylamino)acetamide] | < 1000 |
| C[C@H]1C[C@@H](NC(=O)CN(C)C)C[C@H](c2ccc(C#N)c3nccnc23)C1 (racemic) [Compound 132, N-[(1,cis-3,trans-5,cis)-3-(8-cyanoquinoxalin-5-yl)-5-methylcyclohexyl]-2-(dimethylamino)acetamide] | 1000 to 20000 |
| C[C@H]1C[C@@H](NC(=O)[C@@H](N)C(F)(F)F)C[C@@H](c2ccc(C#N)c3nccnc23)C1 (racemic) [Compound 143, (2R)-2-amino-N-((cis-1,3,5)-3-(8-cyanoquinoxalin-5-yl)-5-methylcyclohexyl)-3,3,3-trifluoropropanamide] | 1000 to 20000 |
| C[C@H]1C[C@@H](NC(=O)[C@H](N)C(F)(F)F)C[C@@H](c2ccc(C#N)c3nccnc23)C1 (racemic) [Compound 144, (2S)-2-amino-N-((cis-1,3,5)-3-(8-cyanoquinoxalin-5-yl)-5-methylcyclohexyl)-3,3,3-trifluoropropanamide] | 1000 to 20000 |
| C[C@H]1C[C@@H](NC(=O)[C@H](N)C(F)(F)F)C[C@H](c2ccc(C#N)c3nccnc23)C1 (racemic) [Compound 145, (2R)-2-amino-N-((1,cis-3cis-5,trans)-3-(8-cyanoquinoxalin-5-yl)-5-methylcyclohexyl)-3,3,3-trifluoropropanamide] | 1000 to 20000 |
| C[C@H]1C[C@@H](NC(=O)[C@@H](N)C(F)(F)F)C[C@H](c2ccc(C#N)c3nccnc23)C1 (racemic) [Compound 146, (2S)-2-amino-N-((1,cis-3cis-5,trans)-3-(8-cyanoquinoxalin-5-yl)-5-methylcyclohexyl)-3,3,3-trifluoropropanamide] | 1000 to 20000 |
| COCCN[C@@H]1C[C@H](C)C[C@@H](c2ccc(C(F)(F)F)c3ncccc23)C1 (racemic) [Compound 151, (1,trans-3,trans-5,cis)-N-(2-methoxyethyl)-3-methyl-5-(8-(trifluoromethyl)quinolin-5-yl)cyclohexanamine] | 1000 to 20000 |
